Experimental findings from patent US11912686B2 (Gilead Sciences, Inc., priority 2020, dated 2024) are described below.

The EC50 is the concentration needed to bring the measured effect to its halfway point.

SMILES strings stand for the structures.

Sequence of human LPAR1 (Q92633 whole entry): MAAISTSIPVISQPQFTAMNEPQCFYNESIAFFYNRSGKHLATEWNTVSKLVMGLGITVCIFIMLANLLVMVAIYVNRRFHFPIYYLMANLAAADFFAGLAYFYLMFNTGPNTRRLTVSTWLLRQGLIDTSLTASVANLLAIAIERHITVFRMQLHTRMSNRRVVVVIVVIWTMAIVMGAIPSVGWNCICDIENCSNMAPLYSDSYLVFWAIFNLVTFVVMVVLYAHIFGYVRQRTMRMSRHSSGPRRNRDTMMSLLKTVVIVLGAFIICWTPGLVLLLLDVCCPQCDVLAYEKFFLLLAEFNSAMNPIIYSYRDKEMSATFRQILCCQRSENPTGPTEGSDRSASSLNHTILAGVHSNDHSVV

The experiment concerns the target human LPAR1 (Homo sapiens (Human), UniProt Q92633). As to the kind of experiment: LPAR1 intracellular calcium mobilization assay (antagonist mode, FLIPR). The following applies: CHO-K1 EDG2 cells expressing human LPAR1, LPA 18:2 at EC80 (100 nM), test compound 0.5 nM to 10 μM. Format: cell-based.
On to `C[C@@H](OC(=O)Nc1c(-c2ccc(NC(=O)c3cnc(C(F)F)nc3)cn2)nnn1C)c1cc(F)cnc1F` [Compound 252, (R)-1-(2,5-difluoropyridin-3-yl)ethyl (4-(5-(2-(difluoromethyl)pyrimidine-5-carboxamido)pyridin-2-yl)-1-methyl-1H-1,2,3-triazol-5-yl)carbamate], for which the EC50 turned out to be 73.5 nM. On to `C[C@@H](OC(=O)Nc1c(-c2ccc(NC(=O)[C@]3(C#N)C[C@H]3C(F)(F)F)cn2)nnn1C)c1cccnc1Cl` [Compound 201, (R)-1-(2-chloropyridin-3-yl)ethyl (4-(5-((1R,2R)-1-cyano-2-(trifluoromethyl)cyclopropane-1-carboxamido)pyridin-2-yl)-1-methyl-1H-1,2,3-triazol-5-yl)carbamate], for which the EC50 is 146 nM. Consider `C[C@@H](OC(=O)Nc1c(-c2cnc(NC(=O)C34CC(F)(C3)C4)cn2)nnn1C)c1cc(F)cnc1Cl` [Compound 333, (R)-1-(2-chloro-5-fluoropyridin-3-yl)ethyl (4-(5-(3-fluorobicyclo[1.1.1]pentane-1-carboxamido)pyrazin-2-yl)-1-methyl-1H-1,2,3-triazol-5-yl)carbamate], for which the EC50 worked out at 219 nM. Under `C[C@H](O)C(=O)Nc1ccc(-c2nnn(C)c2NC(=O)O[C@H](C)c2cccnc2Cl)nc1` [Compound 125, (R)-1-(2-chloropyridin-3-yl)ethyl (4-(5-((S)-2-hydroxypropanamido)pyridin-2-yl)-1-methyl-1H-1,2,3-triazol-5-yl)carbamate] stands 2710 nM; under `C[C@@H](OC(=O)Nc1c(-c2ccc(NC(=O)[C@@H]3C[C@H]3Cl)cn2)nnn1C)c1cc(F)cnc1F` [Compound 218, (R)-1-(2,5-difluoropyridin-3-yl)ethyl (4 (5-((1S,2R)-2-chlorocyclopropane-1-carboxamido)pyridin-2-yl)-1-methyl-1H-1,2,3-triazol-5-yl)carbamate], 24 nM; under `C[C@@H](OC(=O)Nc1c(-c2ccc(NC(=O)c3ccncc3)cn2)nnn1C)c1cccnc1Cl` [Compound 61, (R)-1-(2-chloropyridin-3-yl)ethyl (4-(5-(isonicotinamido)pyridin-2-yl)-1-methyl-1H-1,2,3-triazol-5-yl)carbamate], 134 nM. With `C[C@@H](OC(=O)Nc1c(-c2ccc(NC(=O)[C@@H]3C[C@H]3C#N)cn2)nnn1C)c1cc(F)cnc1Cl` (mixture of isomers) [Compound 285, (R)-1-(2-chloro-5-fluoropyridin-3-yl)ethyl (4-(5-((1RS,2RS)-2-cyanocyclopropane-1-carboxamido)pyridin-2-yl)-1-methyl-1H-1,2,3-triazol-5-yl)carbamate], the EC50 was found to be 71.8 nM. Regarding `CC(=O)Nc1ccc(-c2nnn(C)c2NC(=O)O[C@H](CF)c2cccc(F)c2)nc1` [Compound 25, (S)-2-fluoro-1-(3-fluorophenyl)ethyl (4-(5-acetamidopyridin-2-yl)-1-methyl-1H-1,2,3-triazol-5-yl)carbamate], the EC50 came out at 2270 nM.

On to `C[C@@H](OC(=O)Nc1c(-c2ccc(NC(=O)C3(Cl)CC3)cn2)nnn1C)c1cccnc1Cl` [Compound 40, (R)-1-(2-chloropyridin-3-yl)ethyl (4-(5-(1-chlorocyclopropane-1-carboxamido)pyridin-2-yl)-1-methyl-1H-1,2,3-triazol-5-yl)carbamate], for which the EC50 is 75.2 nM.

`C[C@@H](OC(=O)Nc1c(-c2cnc(NC(=O)c3cnc(C(F)(F)F)nc3)cn2)nnn1C)c1cccnc1F` [Compound 325, (R)-1-(2-fluoropyridin-3-yl)ethyl (1-methyl-4-(5-(2-(trifluoromethyl)pyrimidine-5-carboxamido)pyrazin-2-yl)-1H-1,2,3-triazol-5-yl)carbamate]: the EC50 was 185 nM.

With `CCOC(=O)Nc1ccc(-c2nnn(C)c2NC(=O)O[C@H](C)c2cccnc2Cl)nc1` [Compound 21, (R)-1-(2-chloropyridin-3-yl)ethyl (4-(5-((ethoxycarbonyl)amino)pyridin-2-yl)-1-methyl-1H-1,2,3-triazol-5-yl)carbamate], the EC50 came out at 39.6 nM. As to `C[C@@H](OC(=O)Nc1c(-c2ccc(NC(=O)[C@@H]3C[C@H]3CF)cn2)nnn1C)c1cc(F)cnc1F` (mixture of isomers) [Compound 208, (R)-1-(2,5-difluoropyridin-3-yl)ethyl (4-(5-((1RS,2RS)-2-(fluoromethyl)cyclopropane-1-carboxamido)pyridin-2-yl)-1-methyl-1H-1,2,3-triazol-5-yl)carbamate], the EC50 was determined as 21.1 nM. Take `C[C@@H](OC(=O)Nc1c(-c2ccc(NC(=O)C3CC4(CC(C#N)C4)C3)cn2)nnn1C)c1cccnc1Cl` (stereo partly drawn) [Compound 80, (R)-1-(2-chloropyridin-3-yl)ethyl (4-(5-(6-cyanospiro[3.3]heptane-2-carboxamido)pyridin-2-yl)-1-methyl-1H-1,2,3-triazol-5-yl)carbamate]: the EC50 came to 109 nM.

For the compound `Cc1ncc(C(=O)Nc2ccc(-c3nnn(C)c3NC(=O)O[C@H](C)c3cc(F)cnc3F)nc2)o1` [Compound 256, (R)-1-(2,5-difluoropyridin-3-yl)ethyl (1-methyl-4-(5-(2-methyloxazole-5-carboxamido)pyridin-2-yl)-1H-1,2,3-triazol-5-yl)carbamate], the EC50 was determined as 209 nM. In the case of `Cc1cnc(F)cc1C(C)OC(=O)Nc1c(-c2ccc(NC(=O)C3(C#N)CC3)cn2)nnn1C` (centres unmarked) [Compound 27, 1-(2-fluoro-5-methylpyridin-4-yl)ethyl (4-(5-(1-cyanocyclopropane-1-carboxamido)pyridin-2-yl)-1-methyl-1H-1,2,3-triazol-5-yl)carbamate], the EC50 was determined as 1280 nM. Regarding `C[C@@H](OC(=O)Nc1c(-c2ccc(NC(=O)C3(C#N)CC(F)(F)C3)cn2)nnn1C)c1cccnc1Cl` [Compound 186, (R)-1-(2-chloropyridin-3-yl)ethyl (4-(5-(1-cyano-3,3-difluorocyclobutane-1-carboxamido)pyridin-2-yl)-1-methyl-1H-1,2,3-triazol-5-yl)carbamate], the EC50 turned out to be 100 nM.

Consider `C[C@@H](OC(=O)Nc1c(-c2ccc(NC(=O)c3ccnc(S(C)(=O)=O)c3)cn2)nnn1C)c1cc(F)cnc1F` [Compound 273, (R)-1-(2,5-difluoropyridin-3-yl)ethyl (1-methyl-4-(5-(2-(methylsulfonyl)isonicotinamido)pyridin-2-yl)-1H-1,2,3-triazol-5-yl)carbamate], for which the EC50 was found to be 248 nM. Under `C[C@@H]1CCCN1C(=O)Nc1ccc(-c2nnn(C)c2NC(=O)O[C@H](C)c2cccnc2Cl)nc1` [Compound 192, (R)-1-(2-chloropyridin-3-yl)ethyl (1-methyl-4-(5-((R)-2-methylpyrrolidine-1-carboxamido)pyridin-2-yl)-1H-1,2,3-triazol-5-yl)carbamate] stands 10000 nM; under `C[C@@H](OC(=O)Nc1c(-c2ccc(NC(=O)C3(C)CC(F)(F)C3)cn2)nnn1C)c1cccnc1Cl` [Compound 144, (R)-1-(2-chloropyridin-3-yl)ethyl (4-(5-(3,3-difluoro-1-methylcyclobutane-1-carboxamido)pyridin-2-yl)-1-methyl-1H-1,2,3-triazol-5-yl)carbamate], 36.1 nM.

For the compound `C[C@@H](OC(=O)Nc1c(-c2ncc(NC(=O)[C@@H]3C[C@H]3C(F)(F)F)cn2)nnn1C)c1cc(F)cnc1Cl` [Compound 331, (R)-1-(2-chloro-5-fluoropyridin-3-yl)ethyl (1-methyl-4-(5-((1R,2R)-2-(trifluoromethyl)cyclopropane-1-carboxamido)pyrimidin-2-yl)-1H-1,2,3-triazol-5-yl)carbamate], the EC50 amounted to 22.8 nM.
